Assay results as given in PubChem BioAssay AID488818 (NMMLSC, 2010).
Active and inactive are the calls of the source.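 The calls were made as follows: active = fluorescence change from solvent-only control to top dose above 25; inactive = the rest.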

system: S. cerevisiae s288c autofluorescence, flow cytometry MCF, 3 h; assay: compound autofluorescence in parental yeast s288c, SAR follow-up, artefact control for yeast TOR pathway GFP screen, cherry pick 3, multiplex, flow cytometry (AID 488818); details: at 33.3 µM; hits give high values

| Structure (SMILES) | fluorescence change |
| --- | --- |
| Cc1ccc(NN2C(=O)C=C(c3ccccc3)C2=O)cc1 | 0.65 (inactive) |
| COc1ccccc1-c1cc(C(F)(F)F)nc(S(=O)(=O)CCCC(=O)NC(C)C)n1 | 0.18 (inactive) |
| COc1ccc(OC)c2c(=O)cc(C(=O)O)[nH]c12 | 0.06 (inactive) |
| COc1cccc2c(Cl)c(CCCl)c(C)nc12 | 0.24 (inactive) |
| Oc1c(I)cc(Cl)c2cccnc12 | 2.85 (inactive) |
| Cc1nc2c(O)cccc2cc1CO | 0.06 (inactive) |
| COc1ccc(Nc2nc(NN)nc(C)c2[N+](=O)[O-])cc1 | 0.06 (inactive) |
| CNc1nc(C)c([N+](=O)[O-])c(Nc2ccc(OC)cc2)n1 | 0.06 (inactive) |
| COc1ccccc1Nc1nc(NCCC(C)C)nc(N)c1[N+](=O)[O-] | 0.07 (inactive) |
| COc1ccc(OC)c(Nc2nc(NCCC(C)C)nc(N)c2[N+](=O)[O-])c1 | 0.12 (inactive) |
| NC(=O)c1ccnc2c(O)cccc12 | 0.06 (inactive) |
| Cc1cccc(C)c1Nc1ncnc(N)c1[N+](=O)[O-] | 0.12 (inactive) |
| Cc1ccc2c(Cl)cc(Cl)c(O)c2n1 | 0.81 (inactive) |
| Cn1cccc1C(=O)Nc1nc(-c2ccccn2)cs1 | 0.3 (inactive) |
| COc1ccccc1-c1cc(C(F)(F)F)nc(S(=O)(=O)CCCC(=O)O)n1 | 0.5 (inactive) |
| Oc1ccc(F)c2cccnc12 | 0.06 (inactive) |
| CCCOCc1ccc(O)c2ncccc12 | 0.25 (inactive) |
| COc1ccccc1Nc1nc(NCCO)nc(N)c1[N+](=O)[O-] | 0.19 (inactive) |
| CCOC(=O)CS(=O)(=O)c1nc(-c2ccccc2)cc(C(F)(F)F)n1 | 0.24 (inactive) |
| Oc1c(Br)cc(Br)c2cccnc12 | 3.5 (inactive) |
| CCC(C)Nc1nc(N)c([N+](=O)[O-])c(Nc2ccccc2OC)n1 (stereo unspecified) | 0.06 (inactive) |

| Structure (SMILES) | fluorescence change |
| --- | --- |
| CCc1sc(C(=O)Nc2nc(-c3ccccn3)cs2)cc1C | 0.65 (inactive) |
| COCC(C)NC(=O)CCS(=O)(=O)c1nc(-c2ccc(OC)cc2)cc(C(F)(F)F)n1 (stereo unspecified) | 0.12 (inactive) |
| CC(=O)NC(C)c1cc(Cl)c2cccnc2c1O (stereo unspecified) | 0.25 (inactive) |
| COCCNc1nc(N)c([N+](=O)[O-])c(Nc2ccc(F)cc2)n1 | 0.18 (inactive) |
| O=C(O)c1ccc2cccc(O)c2n1 | 0.18 (inactive) |
| Nc1nc(NCCOCCO)nc(Nc2cccc(F)c2)c1[N+](=O)[O-] | 0.12 (inactive) |
| CCC(C)Nc1nc(N)c([N+](=O)[O-])c(Nc2cc(OC)ccc2OC)n1 (stereo unspecified) | 0.8 (inactive) |
| Cc1ccc(C(=O)Nc2nc(-c3ccccn3)cs2)o1 | 0.24 (inactive) |
| O=C(Nc1nc(-c2ccccn2)cs1)c1ccccc1-n1cnnn1 | 0.07 (inactive) |
| Oc1c(Cl)cc(Cl)c2cccnc12 | 2.85 (inactive) |
| Oc1ccc(Cl)c2cccnc12 | 0.19 (inactive) |
| N#Cc1c(N)nc(N)nc1Nc1ccc(Br)cc1 | 0.12 (inactive) |
| Cc1ccc2c(C)ccc(O)c2n1 | 0 (inactive) |
| Nc1ncnc(Nc2cc(Cl)cc(Cl)c2)c1[N+](=O)[O-] | 0.12 (inactive) |
| CNc1nc(N)c([N+](=O)[O-])c(Nc2cccc(Cl)c2)n1 | 0.08 (inactive) |
| CNc1nc(N)c([N+](=O)[O-])c(Nc2ccccc2OC)n1 | 0.08 (inactive) |
| O=C(O)c1ccc2cccnc2c1O | 0.12 (inactive) |
| CC1=NNC(=O)/C1=C\c1cn(-c2ccccc2)nc1-c1ccc(F)cc1 | 0.24 (inactive) |
| Cc1nc(Nc2ccc(Br)cc2Br)c([N+](=O)[O-])c(=O)[nH]1 | 0 (inactive) |
| COCCCNc1nc(N)c([N+](=O)[O-])c(Nc2ccccc2OC)n1 | 0.06 (inactive) |
